# In ChEMBL document CHEMBL1157272, “Four aristolochic acid esters of rearranged ent-elemane sesquiterpenes from aristolochia heterophylla” (J Nat Prod, 1999):
# Experiment: Cytotoxicity against human HepG2(2.2.15) cells
# Type: functional, cell-based
row,SMILES,IC50 [µM]
1,C=C[C@@]1(C)CCC=C(C[C@H](C)OC(=O)c2cc3c(c4c2c([N+](=O)[O-])cc2c(OC)cccc24)OCO3)[C@H]1C(=C)C=O [ARISTOPHYLLIDE A],5.1
2,C=C[C@@]1(C)CCC=C(C[C@@H](C)OC(=O)c2cc3c(c4c2c([N+](=O)[O-])cc2c(OC)cccc24)OCO3)[C@@H]1C(=C)C=O [ARISTOPHYLLIDE B],9.4
3,C=C[C@@]1(C)CCC=C(C[C@H](C)OC(=O)c2cc3c(c4c2c([N+](=O)[O-])cc2ccccc24)OCO3)[C@H]1C(=C)C=O [ARISTOPHYLLIDE C],6.2
4,C=C[C@@]1(C)CCC=C(C[C@@H](C)OC(=O)c2cc3c(c4c2c([N+](=O)[O-])cc2ccccc24)OCO3)[C@@H]1C(=C)C=O [ARISTOPHYLLIDE D],13.2
